In patent US10413535B2, “Pharmaceutical compositions comprising an integrin ALPHA4 antagonist for use in treating ocular inflammatory conditions” (AXEROVISION, INC., priority 2015, dated 2019):
Where two headings read alike, the source gives them in different places.

Assays:
[1] = system: 53 receptors and 4 transporters; assay: MDS Pharma screen, radioligand binding assays; conditions: at 10 μM
α4β1-VCAM-1 = biological target: T1, α4β1-VCAM-1 (Homo sapiens, UniProt P05556+P13612); assay: VCAM cell adhesion assay, Jurkat J6 cells; assay type: cell-based; conditions: J6 cells to VCAM-1; read-out: Inhibition of cell adhesion (IC50)
T1 construct: characterized in human J6 cells which express VLA-4; endogenous in cells; host or cells: Jurkat J6 cells (human lymphoblast cell line)
Experimental: Jurkat J6 cells (human lymphoblast cell line) were grown as a suspension culture in RPMI 1640 supplemented with FCS (10%) and glutamine (2 mM). RPMI8866 cells (human B lymphoid cell line) were grown as a suspension culture in RPMI 1640 supplemented with FCS (10%) and glutamine (2 mM). RBL-2H3 cells (rat basophilic cell line) were cultured in Eagle's MEM plus Earles salts supplemented with 2 mM L-glutamine, 1 mM sodium pyruvate, 1× non-essential amino acids, 1 mM Na pyruvate 10% heat inactivated foetal calf serum.
Polystyrene 96-well microtitre plates were coated with IgG at a concentration of 0.05 mg/mL in bicarbonate buffer for 2 hours at 37° C. The solution was aspirated and the plates washed twice with PBS. The plates were then incubated overnight at 4° C. with a 1:4000 dilution of VCAM-1 of 3% BSA in PBS. Prior to use the VCAM-1 was aspirated and the plates washed twice with PBS.
J6 or RPMI cells (as required) were labelled with the fluorescent dye BCECF-AM (10 μM and 6×10^6 cells/mL) for 10 min at 37° C. before the excess was removed by centrifugation at 500 g for 5 min and the cells resuspended at a cell concentration of 1.2×10^7 cells/mL in HBSS. Equal volumes HBSS containing the compound of formula I (over concentration range 38.1 pM to 10 μM) and cells were added to the VCAM-1 coated plates. […] The plates were counted in a Wallac Viktor.

conjunctival CD4 T cells = assay: Conjunctival T cell infiltration (CD4 immunohistochemistry), desiccating stress model; assay type: in vivo, mouse; conditions: topical 30 mg/mL, 60 μg per eye, 5 days DS
Experimental: Female C57BL/6 mice, aged 6 to 8 weeks, were subjected to DS for 5 days (DS5) as described previously (de Paiva et al., 2006b; Niederkorn et al., 2006). Topical bilateral treatment with 1 eye drop per eye (2 μL volume) or subcutaneous injection (4 μL volume), 2 times per day, was initiated on day 1 concurrently with DS and continued through day 4. Treatment with the compound of formula I or dexamethasone phosphate 0.1% was compared to correspondingly treated vehicle controls. Mice were randomized to receive one of the test articles. […] Treatment effects were assessed on corneal staining with Oregon Green Dextran (OGD); expression of inflammatory markers in ocular surface tissues by real time PCR; cell population analysis in draining cervical lymph nodes by FACS analysis; conjunctival T cell infiltration by immunohistochemistry.
For immunohistochemistry, the eyes and adnexa of 5 mice/group (n=5) were excised, embedded in optimal cutting temperature (OCT compound; VWR, Suwanee, Ga.), and flash frozen in liquid nitrogen. […] Positively stained cells were counted in the goblet cell rich area of the conjunctiva, over a length of at least 500 μm in the epithelium for a distance of 500 μm using image-analysis software (NIS Elements Software, version 3.0, BR, Nikon). […]

[2] = PK study in rabbits, ocular tissue concentrations (LC-MS/MS); assay type: in vivo, New Zealand White rabbits; conditions: for Tmax: topical or ocular, both studies; for concentration at 6 h: persisted up to 6 hours
Experimental: The potassium salt of GW559090, referred to herein as GW559090A, was given to male New Zealand White rabbits by topical ocular administration as a single bilateral drop (Study #1: n=2 rabbits/4 eyes per time point; Study #2: n=3 rabbits/6 eyes per time point). At designated times (0.5, 1, 3, 6 hours post administration), ocular tissues were collected and processed for analysis. Concentrations of GW559090 were measured in cornea and bulbar conjunctiva by liquid chromatography with tandem mass spectrometry (LC-MS/MS).

[3] = male, New Zealand White, rabbit, conjunctiva, topical, 40 μL (50 mg/mL) GW559090A, read-out: Conjunctival tissue concentration
[4] = male, New Zealand White, rabbit, cornea, topical, 40 μL (50 mg/mL) GW559090A, read-out: Corneal tissue concentration
[5] = single topical 40 μL (50 mg/mL) GW559090A

T1 sequence (P13612 34-1032): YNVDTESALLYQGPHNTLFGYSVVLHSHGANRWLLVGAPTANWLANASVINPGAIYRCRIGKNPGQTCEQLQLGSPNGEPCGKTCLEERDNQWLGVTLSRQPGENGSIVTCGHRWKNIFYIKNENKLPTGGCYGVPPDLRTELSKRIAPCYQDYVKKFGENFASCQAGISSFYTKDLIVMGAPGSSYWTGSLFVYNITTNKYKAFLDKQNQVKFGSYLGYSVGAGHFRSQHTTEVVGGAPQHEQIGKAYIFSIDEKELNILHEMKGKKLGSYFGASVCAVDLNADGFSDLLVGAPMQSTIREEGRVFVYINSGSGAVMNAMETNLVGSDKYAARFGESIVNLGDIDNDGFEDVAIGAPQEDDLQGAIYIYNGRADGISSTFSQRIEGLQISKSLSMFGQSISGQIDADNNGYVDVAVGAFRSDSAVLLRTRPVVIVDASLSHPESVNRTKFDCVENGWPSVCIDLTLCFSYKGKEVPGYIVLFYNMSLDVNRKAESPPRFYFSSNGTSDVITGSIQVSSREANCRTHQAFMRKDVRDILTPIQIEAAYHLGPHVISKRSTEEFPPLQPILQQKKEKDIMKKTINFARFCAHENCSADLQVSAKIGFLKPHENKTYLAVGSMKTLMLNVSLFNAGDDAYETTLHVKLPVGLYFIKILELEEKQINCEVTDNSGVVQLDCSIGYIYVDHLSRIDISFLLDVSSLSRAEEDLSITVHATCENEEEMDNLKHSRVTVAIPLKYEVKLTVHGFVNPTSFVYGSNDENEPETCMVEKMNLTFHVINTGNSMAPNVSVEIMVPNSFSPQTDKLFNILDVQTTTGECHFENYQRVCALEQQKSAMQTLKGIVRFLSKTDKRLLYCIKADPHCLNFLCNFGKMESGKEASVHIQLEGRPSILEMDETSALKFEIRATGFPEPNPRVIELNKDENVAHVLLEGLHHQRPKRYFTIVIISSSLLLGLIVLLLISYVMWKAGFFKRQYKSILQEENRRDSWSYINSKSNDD
T1 sequence (P05556 21-798): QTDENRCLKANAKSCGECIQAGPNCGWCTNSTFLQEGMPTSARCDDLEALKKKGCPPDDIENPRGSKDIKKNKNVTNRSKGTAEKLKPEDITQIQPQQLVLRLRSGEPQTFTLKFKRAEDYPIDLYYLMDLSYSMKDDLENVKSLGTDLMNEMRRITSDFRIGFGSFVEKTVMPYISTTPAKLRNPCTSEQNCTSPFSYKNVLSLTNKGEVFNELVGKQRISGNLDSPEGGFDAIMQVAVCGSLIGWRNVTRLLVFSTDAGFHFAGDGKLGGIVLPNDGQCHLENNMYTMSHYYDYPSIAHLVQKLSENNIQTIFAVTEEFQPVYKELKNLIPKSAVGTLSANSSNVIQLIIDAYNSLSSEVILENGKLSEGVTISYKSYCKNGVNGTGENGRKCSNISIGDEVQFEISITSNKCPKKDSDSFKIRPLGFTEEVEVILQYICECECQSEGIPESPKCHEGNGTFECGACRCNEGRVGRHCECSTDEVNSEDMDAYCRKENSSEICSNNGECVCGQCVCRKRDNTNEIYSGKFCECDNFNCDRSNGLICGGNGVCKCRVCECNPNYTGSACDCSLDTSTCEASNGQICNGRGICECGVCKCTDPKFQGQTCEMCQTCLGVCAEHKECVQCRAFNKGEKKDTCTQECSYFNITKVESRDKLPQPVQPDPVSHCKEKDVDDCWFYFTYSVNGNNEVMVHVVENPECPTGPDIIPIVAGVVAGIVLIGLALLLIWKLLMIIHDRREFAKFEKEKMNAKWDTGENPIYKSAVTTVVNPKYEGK

In the case of `Cc1ccccc1OCC(=O)N[C@@H](CC(C)C)C(=O)N[C@@H](Cc1ccc(OC(=O)N2CCC(C(N)=O)CC2)cc1)C(=O)O` [GW559090, (2S)-3-[4-({[4-(Aminocarbonyl)-1-piperidinyl]carbonyl}oxy)phenyl]-2-[((2S)-4-methyl-2-{[2-(2-methylphenoxy)acetyl]amino}pentanoyl)amino]propanoic acid], the “Inhibition in radioligand binding assays” value [1] is reported as “No significant inhibition”, the IC50 (α4β1-VCAM-1) is reported as 7.72 nM and the “Conjunctival T cell infiltration (cell density)” value (conjunctival CD4 T cells) is reported as “decreases”. For the same compound, the “Mean cornea concentrations versus mean conjunctiva concentrations” value ([2]; 3 and 6 hour postdose) was “higher”, the Tmax ([2]; male, New Zealand White, rabbit, bulbar conjunctiva, single topical 40 μL (50 mg/mL) GW559090A, read-out: Tmax in bulbar conjunctiva) was 60 min and the concentration at 30 min [2, 3] was greater than 3000 ng/mL. For the same compound, the concentration at 6 h [2, 3] was roughly 358 ng/mL, the Tmax ([2]; male, New Zealand White, rabbit, cornea, single topical 40 μL (50 mg/mL) GW559090A, read-out: Tmax in cornea) was 30 min and the concentration at 30 min [2, 4] was greater than 3000 ng/mL. The concentration at 3 h ([2]; male, New Zealand White, rabbit, cornea, topical, at 3 hours, 40 μL (50 mg/mL) GW559090A, read-out: Corneal tissue concentration) was greater than 1000 ng/mL, the concentration at 6 h [2, 4] was roughly 358 ng/mL and the “Mean conjunctiva concentrations quantifiable through” value [2, 5] was 6 h. For the same compound, the “Mean cornea concentrations quantifiable through” value [2, 5] was 6 h.
